Laboratory results taken from patent publication US9956181B2, “Composition of nanoformulated lycopene and method of using the composition” (priority 2015, dated 2018).

System: ovariectomized (OVX) rats
Assay: OVX rat study: in vivo pQCT densitometry of tibia metaphysis
Set-up: species or system Wistar rats
Conditions: 12 weeks, versus OVX control, P<0.001
Protocol: A total of 264 Wistar female rats, ˜6 months old, were supplied by the Animal House at King Fahd Medical Research Center (KFMRC), KAU. Rats were housed in individual cages and maintained at 22° C. with a 12-h light/dark cycle. During the study period, rats were given standard rodent chow diet ad libitum (commercial rat cubes containing approximately 18% protein, 3% fat, 77% carbohydrate, and 2% of an inorganic-salt mixture with a vitamin supplement by weight, supplied by Grain Silos and Flour Mills Organization, Jeddah, Saudi Arabia) and water until the onset of intervention. Prior to surgery, rats were anesthetized with ketamine [(10% ketamine hydrochloride (80 mg/kg body weight), Cayman Chemical, Michigan, USA] and xylazine [(2% xylazine hydrochloride, 10 mg/kg body weight), Sigma-Aldrich Co., St. Louis, USA]. A single longitudinal skin incision was made on the dorsal midline at the level of the kidneys and both ovaries were ligated and removed to produce an ovariectomy in all OVX group animals. A SHAM-operated group, acting as a negative control for the effect of ovariectomy on bone parameters, underwent bilateral laparotomy, during which the ovaries were exposed but remained intact. […] Peripheral Quantitative CT (pQCT) scans were made of the proximal tibia metaphysis and the diaphysis. […]

In the case of `CC(C)=CCC/C(C)=C/C=C/C(C)=C/C=C/C(C)=C/C=C/C=C(C)/C=C/C=C(C)/C=C/C=C(\C)CCC=C(C)C` [lycopene], the “OVX-induced bone loss (total and trabecular BMD, proximal tibia, pQCT)” value is reported as “significantly prevented”.
